Source: PubChem BioAssay (NCI)
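GI50 is the concentration that inhibits growth by half. TGI denotes the concentration required for complete inhibition of growth.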

Experiments:
Assay in all cases: NCI-60 cell line screen, 384-well format
MDA-MB-231 breast = tested on: MDA-MB-231 breast
NCI-H460 NSCLC = tested on: NCI-H460 NSCLC
CAKI-1 renal = tested on: CAKI-1 renal
MOLT-4 leukemia = tested on: MOLT-4 leukemia
SK-MEL-2 melanoma = tested on: SK-MEL-2 melanoma
TK-10 renal = tested on: TK-10 renal
SN12C renal = tested on: SN12C renal
NCI-H322M lung = tested on: NCI-H322M lung
HS 578T breast = tested on: HS 578T breast
NCI/ADR-RES ovarian = tested on: NCI/ADR-RES ovarian
SR leukemia = tested on: SR leukemia
HOP-92 NSCLC = tested on: HOP-92 NSCLC
DU-145 prostate = tested on: DU-145 prostate
HL-60(TB) leukemia = tested on: HL-60(TB) leukemia
UACC-62 melanoma = tested on: UACC-62 melanoma
RPMI-8226 leukemia = tested on: RPMI-8226 leukemia
A498 renal = tested on: A498 renal
OVCAR-5 ovarian = tested on: OVCAR-5 ovarian
U251 glioblastoma = tested on: U251 glioblastoma
OVCAR-3 ovarian = tested on: OVCAR-3 ovarian
OVCAR-8 ovarian = tested on: OVCAR-8 ovarian
UACC-257 melanoma = tested on: UACC-257 melanoma
M14 melanoma = tested on: M14 melanoma
SNB-19 CNS = tested on: SNB-19 CNS
HT29 colon = tested on: HT29 colon
RXF 393 renal = tested on: RXF 393 renal
MCF7 breast = tested on: MCF7 breast
SF-295 CNS = tested on: SF-295 CNS
A549 NSCLC = tested on: A549 NSCLC
NCI-H226 lung = tested on: NCI-H226 lung
CCRF-CEM leukemia = tested on: CCRF-CEM leukemia
KM12 colon = tested on: KM12 colon
T-47D breast = tested on: T-47D breast
OVCAR-4 ovarian = tested on: OVCAR-4 ovarian
EKVX NSCLC = tested on: EKVX NSCLC
HOP-62 NSCLC = tested on: HOP-62 NSCLC
SK-OV-3 ovarian = tested on: SK-OV-3 ovarian
MDA-MB-468 breast = tested on: MDA-MB-468 breast
HCT-116 colon = tested on: HCT-116 colon
ACHN renal = tested on: ACHN renal
SK-MEL-28 melanoma = tested on: SK-MEL-28 melanoma
K-562 leukemia = tested on: K-562 leukemia
NCI-H23 lung = tested on: NCI-H23 lung
BT-549 breast = tested on: BT-549 breast
MALME-3M melanoma = tested on: MALME-3M melanoma
MDA-MB-435 melanoma = tested on: MDA-MB-435 melanoma
HCC-2998 colon = tested on: HCC-2998 colon

Structure (SMILES): COC(=O)c1ccc([C@H]2c3[nH]c4ccccc4c3C[C@H](C(=O)OC)N2C(=O)CCl)cc1
- GI50 (MDA-MB-231 breast): 14.4 nM
- TGI (MDA-MB-231 breast): 28.6 nM
- GI50 (NCI-H460 NSCLC): 574 nM
- TGI (NCI-H460 NSCLC): 1940 nM
- GI50 (CAKI-1 renal): < 10 nM
- TGI (CAKI-1 renal): < 10 nM
- GI50 (MOLT-4 leukemia): 15.5 nM
- TGI (MOLT-4 leukemia): 29.4 nM
- GI50 (SK-MEL-2 melanoma): 51.7 nM
- TGI (SK-MEL-2 melanoma): 185 nM
- GI50 (TK-10 renal): 15.8 nM
- TGI (TK-10 renal): 33.6 nM
- GI50 (SN12C renal): 466 nM
- TGI (SN12C renal): 1830 nM
- GI50 (NCI-H322M lung): 1140 nM
- TGI (NCI-H322M lung): 2420 nM
- GI50 (HS 578T breast): 131 nM
- TGI (HS 578T breast): 311 nM
- GI50 (NCI/ADR-RES ovarian): 25.1 nM
- TGI (NCI/ADR-RES ovarian): 102 nM
- GI50 (SR leukemia): < 10 nM
- TGI (SR leukemia): 20.5 nM
- GI50 (HOP-92 NSCLC): < 10 nM
- TGI (HOP-92 NSCLC): < 10 nM
- GI50 (DU-145 prostate): 336 nM
- TGI (DU-145 prostate): 1640 nM
- GI50 (HL-60(TB) leukemia): < 10 nM
- TGI (HL-60(TB) leukemia): 10.2 nM
- GI50 (UACC-62 melanoma): 19.3 nM
- TGI (UACC-62 melanoma): 41.6 nM
- GI50 (RPMI-8226 leukemia): 14.2 nM
- TGI (RPMI-8226 leukemia): 28.4 nM
- GI50 (A498 renal): 20.5 nM
- TGI (A498 renal): 43.8 nM
- GI50 (OVCAR-5 ovarian): 289 nM
- TGI (OVCAR-5 ovarian): 1580 nM
- GI50 (U251 glioblastoma): 119 nM
- TGI (U251 glioblastoma): 399 nM
- GI50 (OVCAR-3 ovarian): 14.3 nM
- TGI (OVCAR-3 ovarian): 28.8 nM
- GI50 (OVCAR-8 ovarian): 66.5 nM
- TGI (OVCAR-8 ovarian): 248 nM
- GI50 (UACC-257 melanoma): 86.8 nM
- TGI (UACC-257 melanoma): 336 nM
- GI50 (M14 melanoma): 51.2 nM
- TGI (M14 melanoma): 216 nM
- GI50 (SNB-19 CNS): 1300 nM
- TGI (SNB-19 CNS): 2590 nM
- GI50 (HT29 colon): 227 nM
- TGI (HT29 colon): 707 nM
- GI50 (RXF 393 renal): < 10 nM
- TGI (RXF 393 renal): 15.2 nM
- GI50 (MCF7 breast): 553 nM
- TGI (MCF7 breast): 1830 nM
- GI50 (SF-295 CNS): 103 nM
- TGI (SF-295 CNS): 221 nM
- GI50 (A549 NSCLC): 119 nM
- TGI (A549 NSCLC): 339 nM
- GI50 (NCI-H226 lung): 75.1 nM
- TGI (NCI-H226 lung): 449 nM
- GI50 (CCRF-CEM leukemia): < 10 nM
- TGI (CCRF-CEM leukemia): 15 nM
- GI50 (KM12 colon): 18.3 nM
- TGI (KM12 colon): 37.8 nM
- GI50 (T-47D breast): 58.2 nM
- TGI (T-47D breast): 764 nM
- GI50 (OVCAR-4 ovarian): < 10 nM
- TGI (OVCAR-4 ovarian): < 10 nM
- GI50 (EKVX NSCLC): < 10 nM
- TGI (EKVX NSCLC): 22.4 nM
- GI50 (HOP-62 NSCLC): 10.7 nM
- TGI (HOP-62 NSCLC): 35.5 nM
- GI50 (SK-OV-3 ovarian): 158 nM
- TGI (SK-OV-3 ovarian): 299 nM
- GI50 (MDA-MB-468 breast): < 10 nM
- TGI (MDA-MB-468 breast): 19.5 nM
- GI50 (HCT-116 colon): 366 nM
- TGI (HCT-116 colon): 1450 nM
- GI50 (ACHN renal): < 10 nM
- TGI (ACHN renal): < 10 nM
- GI50 (SK-MEL-28 melanoma): 1450 nM
- TGI (SK-MEL-28 melanoma): 2830 nM
- GI50 (K-562 leukemia): 46.2 nM
- TGI (K-562 leukemia): 382 nM
- GI50 (NCI-H23 lung): < 10 nM
- TGI (NCI-H23 lung): 12 nM
- GI50 (BT-549 breast): 120 nM
- TGI (BT-549 breast): 246 nM
- GI50 (MALME-3M melanoma): 14.8 nM
- TGI (MALME-3M melanoma): 29 nM
- GI50 (MDA-MB-435 melanoma): 346 nM
- TGI (MDA-MB-435 melanoma): 1570 nM
- GI50 (HCC-2998 colon): 30.3 nM
- TGI (HCC-2998 colon): 177 nM
